Data as given in patent publication US12544372B2, “Methods of treating rheumatoid arthritis, chronic spontaneous urticaria, and systemic lupus erythematosis using an inhibitor of Bruton's tyrosine kinase” (Genentech, Inc., priority 2019, dated 2026).
Marks after values point to notes of the source that are not given here.

What was measured:
[1] = test system: Rheumatoid factor (RF) IgM autoantibody; test: RA study biomarker: rheumatoid factor IgM autoantibody; format: in vivo, human; details: for Rheumatoid factor (RF) IgM autoantibody levels: by Week 12 (92% placebo)
Method: (§1) Biomarkers were evaluated in serum or plasma samples at baseline and weeks 1, 4, and 12 in patients with available samples (cohort 1: n=438; cohort 2: n=86). The biomarkers evaluated in this assessment were chemokine [C-C motif] ligand 4 (CCL4), IL-6, and TNF-like cytokine 1A (TL1A). Total IgM, IgG, rheumatoid factor IgM autoantibody (RF), CCL4, TL1A, IL-6, and anti-CCP autoantibody (ACPA IgG) levels were analyzed with immunoassays. CD19^+ B cells and CD3^+ T cells were measured by flow cytometry. The proportion of patients achieving an ACR50 response at week 12 and the change in DAS28 score by week 12 were assessed relative to seropositivity (RF and/or ACPA positive at baseline) or baseline levels of RF in both cohorts. To select which biomarkers to evaluate in this trial, BTK-dependent myeloid biomarkers were identified using peripheral blood CD14^+ monocytes stimulated with immune-complexes in the presence or absence of a BTK inhibitor. In brief, the expression levels of genes in human monocytes were assayed under conditions of no stimulation; with human serum albumin immune complex stimulation; with stimulation and a low concentration of a BTK inhibitor with similar characteristics to fenebrutinib; or with stimulation and a high concentration of the BTK inhibitor. […] Genes annotated with cytokine activity were selected. The color bar represents normalized gene expression.

CRP = test: RA study: CRP versus baseline; format: in vivo, human
Method: As used herein, “CRP” refers to C-reactive protein, or the blood test for inflammation in the body which measures C-reactive protein in the blood. CRP, a protein produced in the liver, will increase in concentration in the blood in response to inflammation. CRP may be measured by a “hsCRP” test, which measures high sensitivity CRP. In some embodiments, a positive result for elevated CRP is as measured by hsCRP ≥0.400 mg/dL hsCRP test. In other embodiments, a positive result for elevated CRP is as measured by a hsCRP ≥0.650 mg/dL hsCRP test. CRP tests are widely available from a variety of vendors (LabCorp, Quest Diagnostics, Life Line Screening, etc.).
The specific components of the ACR Assessments used in this study are as follows: Tender/Painful Joint Count (68), Swollen Joint Count (66), Patient's Assessment of Arthritis Pain, Patient's Global Assessment of Arthritis, Physician's Global Assessment of Arthritis, CRP and HAQ-DI.

ACPA IgG = test: RA study biomarker: ACPA IgG; format: in vivo, human
Method: as §1

[2] = test system: IgG anti-FcERI autoantibodies; test: CSU study: serum IgG anti-FcERI autoantibodies (immunoassay); format: in vivo, human; details: Cohorts 1 and 2, serum, week 0 to 8
Method: Some patient samples were also evaluated specifically for IgG anti-FcERI autoantibodies, and the level of those autoantibodies over time in fenebrutinib-administered patients compared to placebo-administered patients is shown in FIG. 37. Serum samples were collected at 0 and 8 weeks from patients receiving fenebrutinib (left) versus placebo (right), with samples sizes for each group shown. Prior to direct FcERI immunoassay, samples were split and pre-incubated with equimolar concentrations of rhFcERI or an unrelated control protein. Reactivity levels were determined relative to a mouse monoclonal antibody standard. IgG anti-FcERI was defined as the difference in reactivity between the split samples, and is shown in relative units (RU). The bold lines without markers represent the average of patients who were anti-FcERI positive at baseline. The dotted line represents the mean+3 standard deviations of healthy volunteer samples. Some sample lines for IgG anti-FcERI negative patients overlap at the lower end of the assay range. […] Without wishing to be bound by any theory, it is thought that anti-FcERI may be a driver of positive CU index test results, and are associated with refractory CSU.

Anti-dsDNA = test: SLE study biomarker: anti-dsDNA autoantibodies; format: in vivo, human; details: patients positive at baseline (>30 IU/mL)
[3] = Phase II SLE study: safety
Text: The safety objective for this study was to evaluate the safety of fenebrutinib given in combination with SOC in patients with moderate to severe active SLE.
An unblinded IMC and Scientific Oversight Committee is used to monitor multiple safety assessments.

**Q.** For C[C@H]1CN(C2COC2)CCN1c1ccc(Nc2cc(-c3ccnc(N4CCn5c(cc6c5CC(C)(C)C6)C4=O)c3CO)cn(C)c2=O)nc1 [fenebrutinib, (S)-2-(3′-(hydroxymethyl)-1-methyl-5-((5-(2-methyl-4-(oxetan-3-yl)piperazin-1-yl)pyridin-2-yl)amino)-6-oxo-1,6-dihydro-[3,4′-bipyridin]-2′-yl)-7,7-dimethyl-2,3,4,6,7,8-hexahydro-1H-cyclopenta[4,5]pyrrolo[1,2-a]pyrazin-1-one], which “Rheumatoid factor (RF) IgM autoantibody levels” value ([1]; 150 mg QD arm) is on record?
**A.** 66%

**Q.** And the “Rheumatoid factor (RF) IgM autoantibody levels” value ([1]; 200 mg BID arm)?
**A.** 64%

**Q.** What about the “RF IgM median reduction relative to placebo” value ([1]; cohort 1, 200 mg twice daily, by week 12) of the same compound?
**A.** −29%

**Q.** And the “CRP, % of BL CRP” value (CRP; Cohort 1, 200 mg BID, Week 8 and Week 12)?
**A.** 59%

**Q.** What about the CRP levels (CRP; Cohort 2, Week 8 and Week 12) of the same compound?
**A.** reduced CRP levels

**Q.** And the “ACPA IgG levels relative to placebo” value (ACPA IgG; cohort 1)?
**A.** not significantly changed relative to placebo

**Q.** What about the “ACPA IgG levels change” value (ACPA IgG; cohort 2, 200 mg twice daily, by week 12 (+15% in the placebo group)) of the same compound?
**A.** −24%

**Q.** What about the “IgG anti-FcERI autoantibodies” value [2] of the same compound?
**A.** significant reduction

**Q.** What about the “Anti-dsDNA, Median Change from Baseline at Week 48” value (Anti-dsDNA; 150 mg QD) of the same compound?
**A.** −38.3* IU/ml

**Q.** What about the “Anti-dsDNA, Median Change from Baseline at Week 48” value (Anti-dsDNA; 200 mg BID) of the same compound?
**A.** −75.7* IU/ml

**Q.** And the “Total number of patients with at least one AE” value ([3]; 150 mg QD)?
**A.** 77 (89) n (%)

**Q.** What about the “Total number of patients with at least one AE leading to death” value ([3]; 150 mg QD) of the same compound?
**A.** 1 (1) n (%)

**Q.** And the “Total number of patients with at least one Serious AE” value ([3]; 150 mg QD)?
**A.** 4 (5) n (%)

**Q.** What about the “Total number of patients with at least one AE” value ([3]; 200 mg BID) of the same compound?
**A.** 68 (77) n (%)

**Q.** And the “Total number of patients with at least one AE leading to death” value ([3]; 200 mg BID)?
**A.** 0 n (%)

**Q.** What about the “Total number of patients with at least one Serious AE” value ([3]; 200 mg BID) of the same compound?
**A.** 12 (14) n (%)

**Q.** What about the “ALT and AST elevations” value ([3]; interim analysis, 200 mg BID arm, some patients) of the same compound?
**A.** signs of ALT and AST elevations

**Q.** What about the safety and tolerability ([3]; interim analysis, each dose) of the same compound?
**A.** safe and well tolerated
